Consider three compounds from patent US20100178299A1, “METHODS AND COMPOSITIONS FOR IMPROVING IMMUNE RESPONSES” (Northeastern University, priority 2007, published 2010).

“Also recorded” adds a separate entry of the source.

Assay [1] deals with MCA 205 fibrosarcoma lung metastases. Briefly: Adoptive immunotherapy of MCA 205 fibrosarcoma lung metastases. It counts as in vivo, mice. To be noted: KW6002 20 mg/kg daily i.p. with adoptive transfer of 12.5×10^6 anti-tumor T cells; day 21. The protocol: Here, we observed the effect of adoptively transferred anti-tumor T cells on the weakly immunogenic MCA 205 fibrosarcoma lung metastases if treatment included A2AR antagonist KW6002. It is shown that treatment with this long-lived A2AR antagonist may strongly enhance the efficacy of adoptive immunotherapy (FIG. 7).
CTLs were prepared from tumor draining lymph nodes isolated from lymph nodes 12 days after s.c. inoculation with 1.5×105 MCA205 fibrosarcoma. After 2 days anti-CD3 activation and additional 3 days IL-2 expansion, these T cells were injected into mice with 10 days established pulmonary metastases (3×10^5 MCA205 cells). After the adoptive transfer, the mice received daily i.p. injection of 20 mg/kg of KW6002. The pulmonary metastases were examined by day 21 after tumor inoculation. (Please note that tumors appear as white nodules upon the ink injected lungs.)

The subject of the next assay is B16 melanoma. Briefly: B16 melanoma growth and survival in mice given GM-CSF-transfected B16 tumor vaccine. The settings on record: for survival of mice: log-rank. The format is in vivo, C57BL/6 mice. The source says: Tumor melanoma cells are transfected with GM-CSF then irradiated or treated with anti-proliferative drug, mitomycin C, in order to prevent the proliferation of these tumor vaccine cells in a patient to be injected with this vaccine. […] Hodi F S, Dranoff G. Combinatorial cancer immunotherapy. Adv Immunol. 2006; 90:341-68
B16 melanoma (1×10^6 cells, s.c.) were inoculated to syngeneic C57BL/6 mice. All the mice received tumor vaccination, GM-CSF transfectant of B16 cells (1×10^6 cells, s.c.), for 3 times in every week starting from day 2. On the same day, treatment with KW6002 (2 mg/kg, daily s.c. injection) and/or 60% oxygen was started until the end of the experiment. B16 tumor growth was retarded by treatment with 60% oxygen and combined treatment with KW6002 (left). Perpendicular tumor diameters were measured and tumor volumes were calculated according to the formula a2×b×0.52, where a is the smaller and b is the larger tumor diameter. […] The mice were euthanized when tumor reached 2.0 cm in diameter or became ulcerated. […] The difference was statistically significant with control vs 60% O2 (p=0.033) and control vs 60% O2+KW (p=0.001). The statistics was calculated by log-rank test.

For the next assay, the system named is TNP-specific IgM. Briefly: TNP-KLH/CFA immunization with IFA booster, indirect ELISA of TNP-specific IgM (Example 2). It counts as in vivo, C57B1/6 mice.
A further assay concerns RMA T lymphoma. Briefly: RMA T lymphoma growth, rejection and survival in mice treated with caffeine and/or 60% oxygen. It counts as in vivo, C57BL/6 mice.
A further assay has as its target T1, A2AR (Homo sapiens, UniProt P29274).
T1 construct: host or cells: cells, not specified
Briefly: Control assay of ex vivo serum from caffeine-treated mice on adenosine→A2AR-induced cAMP accumulation in cells. The format is cell-based. The settings on record: ex vivo serum from mice given caffeine 0.1% w/v in drinking water. Background: cAMP levels reflect the balance of adenylyl cyclase and phosphodiesterase activity.

[2] abbreviates: caffeine alone in drinking water (0.1% w/v), FIG. 2.

T1 sequence (P29274 whole entry): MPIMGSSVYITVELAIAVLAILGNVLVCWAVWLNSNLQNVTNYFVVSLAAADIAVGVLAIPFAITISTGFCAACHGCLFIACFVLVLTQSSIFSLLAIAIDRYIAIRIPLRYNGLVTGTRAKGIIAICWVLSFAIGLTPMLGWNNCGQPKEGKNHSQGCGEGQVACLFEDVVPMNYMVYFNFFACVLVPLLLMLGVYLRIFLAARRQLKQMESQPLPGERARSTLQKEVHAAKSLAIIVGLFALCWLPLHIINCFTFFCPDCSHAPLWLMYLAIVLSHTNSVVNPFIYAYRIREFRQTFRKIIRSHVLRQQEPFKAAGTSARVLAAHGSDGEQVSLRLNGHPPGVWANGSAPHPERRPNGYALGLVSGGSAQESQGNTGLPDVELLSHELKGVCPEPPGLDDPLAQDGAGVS

Turning to `CCn1c(=O)c2c(nc(/C=C/c3ccc(OC)c(OC)c3)n2C)n(CC)c1=O` [KW6002, (E)-8-(3,4-dimethoxystyryl)-1,3-diethyl-7-methylxanthine], the “lung tumor nodules (pulmonary metastases)” value in assay [1] is reported as “most of the tumor nodules were eliminated”. The B16 tumor growth result with B16 melanoma (KW6002 2 mg/kg daily s.c. combined with 60% oxygen, n=8, 2 mg/kg) is on record as “can significantly retard tumor growth; also recorded: retarded”. Besides, the survival of mice result in the assay with B16 melanoma (KW6002 2 mg/kg daily s.c. combined with 60% oxygen, p=0.001 vs control) was “prolonged survival of mice”.

With oxygen, the “TNP-specific IgM production” value in the assay on TNP-specific IgM (60% oxygen after vaccination versus normal oxygen, FIG. 4A) is “produced more IgM than control immunized mice”. Also, the B16 tumor growth result in the assay on B16 melanoma (60% oxygen alone, with tumor vaccine, n=8) is on record as “retarded”. The survival of mice result with B16 melanoma (60% oxygen alone, with tumor vaccine, p=0.033 vs control) is “prolonged survival of mice”. In the assay on RMA T lymphoma (high dose RMA 3×10^5 cells s.c., 60% oxygen alone, n=8, most of the mice), the tumor rejection result is given as “did not reject the tumor; also recorded: couldn't reject the tumor”.

Regarding `Cn1c(=O)c2c(ncn2C)n(C)c1=O` [caffeine, 1,3,7-trimethylxanthine], the “effectiveness of immunization (TNP-specific IgM)” value in the assay with TNP-specific IgM (caffeine in drinking water added to 60% oxygen versus 60% oxygen alone, FIG. 4B) is “further improved effectiveness of immunization”. In addition, in the assay on RMA T lymphoma (setting [2]), the RMA tumor growth entry is “delayed tumor growth in mice” and the survival result is recorded as “no significant improvement of survival”. In the assay with RMA T lymphoma (combined treatment with caffeine and high (60%) oxygen atmosphere), the “rejection of RMA T lymphoma” value is “significantly improved spontaneous rejection of RMA T lymphoma; also recorded: dramatically improving tumor rejection and survival; also recorded: significantly improved T cell-mediated rejection of RMA T lymphoma”. In addition, the survival of mice result in the assay on RMA T lymphoma (low dose RMA 2×10^5 cells s.c., combined caffeine and 60% oxygen, about 30% of control mice survived) is on record as “significantly improved survival of mice”. For the same compound, on A2AR, the “in vivo levels of caffeine in serum versus adenosine→A2AR-induced cAMP accumulation” value is given as “sufficiently high to prevent (antagonize) adenosine→A2AR-induced cAMP accumulation in cells”.
